How the values were obtained:
Assay type in all cases: functional
Details in all cases: read-out: DIZ
Proteus mirabilis [1] = experiment: Antibacterial activity against Proteus mirabilis assessed as diameter of growth inhibition zone at 50 ug/ml after 24 hr by agar diffusion method
Salmonella typhi [2] = experiment: Antibacterial activity against Salmonella enterica subsp. enterica serovar Typhi assessed as diameter of growth inhibition zone at 50 ug/ml after 24 hr by agar diffusion method
Pseudomonas aeruginosa [3] = experiment: Antibacterial activity against Pseudomonas aeruginosa assessed as diameter of growth inhibition zone at 50 ug/ml after 24 hr by agar diffusion method
Escherichia coli [4] = experiment: Antibacterial activity against Escherichia coli assessed as diameter of growth inhibition zone at 50 ug/ml after 24 hr by agar diffusion method
Staphylococcus aureus [5] = experiment: Antibacterial activity against Staphylococcus aureus assessed as diameter of growth inhibition zone at 50 ug/ml after 24 hr by agar diffusion method
Bacillus subtilis [6] = experiment: Antibacterial activity against Bacillus subtilis assessed as diameter of growth inhibition zone at 50 ug/ml after 24 hr by agar diffusion method
Bacillus subtilis [7] = experiment: Antibacterial activity against Bacillus subtilis assessed as diameter of growth inhibition zone at 100 ug/ml after 24 hr by agar diffusion method
Proteus mirabilis [8] = experiment: Antibacterial activity against Proteus mirabilis assessed as diameter of growth inhibition zone at 100 ug/ml after 24 hr by agar diffusion method
Salmonella typhi [9] = experiment: Antibacterial activity against Salmonella enterica subsp. enterica serovar Typhi assessed as diameter of growth inhibition zone at 100 ug/ml after 24 hr by agar diffusion method
Pseudomonas aeruginosa [10] = experiment: Antibacterial activity against Pseudomonas aeruginosa assessed as diameter of growth inhibition zone at 100 ug/ml after 24 hr by agar diffusion method
Escherichia coli [11] = experiment: Antibacterial activity against Escherichia coli assessed as diameter of growth inhibition zone at 100 ug/ml after 24 hr by agar diffusion method
Staphylococcus aureus [12] = experiment: Antibacterial activity against Staphylococcus aureus assessed as diameter of growth inhibition zone at 100 ug/ml after 24 hr by agar diffusion method

## O=C(O)c1cn(C2CC2)c2cc(N3CCNCC3)c(F)cc2c1=O [CIPROFLOXACIN]
Proteus mirabilis [1]
  zone of inhibition at 50 µg/mL: 19.5 mm
Salmonella typhi [2]
  zone of inhibition at 50 µg/mL: 18 mm
Pseudomonas aeruginosa [3]
  zone of inhibition at 50 µg/mL: 19 mm
Escherichia coli [4]
  zone of inhibition at 50 µg/mL: 18.5 mm
Staphylococcus aureus [5]
  zone of inhibition at 50 µg/mL: 18 mm
Bacillus subtilis [6]
  zone of inhibition at 50 µg/mL: 18 mm

## O=C(N/N=C(/C=C/c1ccccc1)c1ccccc1)c1ccncc1
Bacillus subtilis [7]
  zone of inhibition at 100 µg/mL: 8.5 mm
Proteus mirabilis [1]
  zone of inhibition at 50 µg/mL: 6.5 mm
Salmonella typhi [2]
  zone of inhibition at 50 µg/mL: 6 mm
Pseudomonas aeruginosa [3]
  zone of inhibition at 50 µg/mL: 6 mm
Escherichia coli [4]
  zone of inhibition at 50 µg/mL: 6 mm
Staphylococcus aureus [5]
  zone of inhibition at 50 µg/mL: 6 mm
Bacillus subtilis [6]
  zone of inhibition at 50 µg/mL: 6 mm
Proteus mirabilis [8]
  zone of inhibition at 100 µg/mL: 8 mm
Salmonella typhi [9]
  zone of inhibition at 100 µg/mL: 8 mm
Pseudomonas aeruginosa [10]
  zone of inhibition at 100 µg/mL: 8.5 mm
Escherichia coli [11]
  zone of inhibition at 100 µg/mL: 8 mm
Staphylococcus aureus [12]
  zone of inhibition at 100 µg/mL: 8 mm

## CC1=NC(=C/c2ccccc2)/C(=N/Nc2ccc([N+](=O)[O-])cc2[N+](=O)[O-])O1
Bacillus subtilis [7]
  zone of inhibition at 100 µg/mL: 9 mm
Proteus mirabilis [1]
  zone of inhibition at 50 µg/mL: 6 mm
Salmonella typhi [2]
  zone of inhibition at 50 µg/mL: 6.5 mm
Pseudomonas aeruginosa [3]
  zone of inhibition at 50 µg/mL: 6 mm
Escherichia coli [4]
  zone of inhibition at 50 µg/mL: 6 mm
Staphylococcus aureus [5]
  zone of inhibition at 50 µg/mL: 6.5 mm
Bacillus subtilis [6]
  zone of inhibition at 50 µg/mL: 6 mm
Proteus mirabilis [8]
  zone of inhibition at 100 µg/mL: 9.5 mm
Salmonella typhi [9]
  zone of inhibition at 100 µg/mL: 8 mm
Pseudomonas aeruginosa [10]
  zone of inhibition at 100 µg/mL: 8.5 mm
Escherichia coli [11]
  zone of inhibition at 100 µg/mL: 8.5 mm
Staphylococcus aureus [12]
  zone of inhibition at 100 µg/mL: 9 mm

## CC(/C=C/c1ccccc1)=N\NC(=O)c1ccncc1
Bacillus subtilis [7]
  zone of inhibition at 100 µg/mL: 8.5 mm
Proteus mirabilis [1]
  zone of inhibition at 50 µg/mL: 6 mm
Salmonella typhi [2]
  zone of inhibition at 50 µg/mL: 6 mm
Pseudomonas aeruginosa [3]
  zone of inhibition at 50 µg/mL: 6 mm
Escherichia coli [4]
  zone of inhibition at 50 µg/mL: 6 mm
Staphylococcus aureus [5]
  zone of inhibition at 50 µg/mL: 6 mm
Bacillus subtilis [6]
  zone of inhibition at 50 µg/mL: 6 mm
Proteus mirabilis [8]
  zone of inhibition at 100 µg/mL: 8.5 mm
Salmonella typhi [9]
  zone of inhibition at 100 µg/mL: 8.5 mm
Pseudomonas aeruginosa [10]
  zone of inhibition at 100 µg/mL: 8 mm
Escherichia coli [11]
  zone of inhibition at 100 µg/mL: 8 mm
Staphylococcus aureus [12]
  zone of inhibition at 100 µg/mL: 8.5 mm

## C(=C\c1ccccc1)/C(=N/Nc1ccc(-c2nc3ccccc3[nH]2)cc1)c1ccccc1
Bacillus subtilis [7]
  zone of inhibition at 100 µg/mL: 8.5 mm
Proteus mirabilis [1]
  zone of inhibition at 50 µg/mL: 6 mm
Salmonella typhi [2]
  zone of inhibition at 50 µg/mL: 6.5 mm
Pseudomonas aeruginosa [3]
  zone of inhibition at 50 µg/mL: 6 mm
Escherichia coli [4]
  zone of inhibition at 50 µg/mL: 6 mm
Staphylococcus aureus [5]
  zone of inhibition at 50 µg/mL: 6.5 mm
Bacillus subtilis [6]
  zone of inhibition at 50 µg/mL: 6 mm
Proteus mirabilis [8]
  zone of inhibition at 100 µg/mL: 8.5 mm
Salmonella typhi [9]
  zone of inhibition at 100 µg/mL: 8 mm
Pseudomonas aeruginosa [10]
  zone of inhibition at 100 µg/mL: 8.5 mm
Escherichia coli [11]
  zone of inhibition at 100 µg/mL: 8.5 mm
Staphylococcus aureus [12]
  zone of inhibition at 100 µg/mL: 9 mm

## O=[N+]([O-])c1ccc(N/N=C(/C=C/c2ccccc2)c2ccccc2)c([N+](=O)[O-])c1
Bacillus subtilis [7]
  zone of inhibition at 100 µg/mL: 9 mm
Proteus mirabilis [1]
  zone of inhibition at 50 µg/mL: 6.5 mm
Salmonella typhi [2]
  zone of inhibition at 50 µg/mL: 6.5 mm
Pseudomonas aeruginosa [3]
  zone of inhibition at 50 µg/mL: 6 mm
Escherichia coli [4]
  zone of inhibition at 50 µg/mL: 6.5 mm
Staphylococcus aureus [5]
  zone of inhibition at 50 µg/mL: 6 mm
Bacillus subtilis [6]
  zone of inhibition at 50 µg/mL: 6.5 mm
Proteus mirabilis [8]
  zone of inhibition at 100 µg/mL: 9.5 mm
Salmonella typhi [9]
  zone of inhibition at 100 µg/mL: 8.5 mm
Pseudomonas aeruginosa [10]
  zone of inhibition at 100 µg/mL: 8.5 mm
Escherichia coli [11]
  zone of inhibition at 100 µg/mL: 8 mm
Staphylococcus aureus [12]
  zone of inhibition at 100 µg/mL: 8.5 mm

## CC1=NC(=C/c2ccccc2)/C(=N/Nc2ccccc2)O1
Bacillus subtilis [7]
  zone of inhibition at 100 µg/mL: 9.5 mm
Proteus mirabilis [1]
  zone of inhibition at 50 µg/mL: 6.5 mm
Salmonella typhi [2]
  zone of inhibition at 50 µg/mL: 6 mm
Pseudomonas aeruginosa [3]
  zone of inhibition at 50 µg/mL: 6 mm
Escherichia coli [4]
  zone of inhibition at 50 µg/mL: 6.5 mm
Staphylococcus aureus [5]
  zone of inhibition at 50 µg/mL: 14 mm
Bacillus subtilis [6]
  zone of inhibition at 50 µg/mL: 6 mm
Proteus mirabilis [8]
  zone of inhibition at 100 µg/mL: 8.5 mm
Salmonella typhi [9]
  zone of inhibition at 100 µg/mL: 8 mm
Pseudomonas aeruginosa [10]
  zone of inhibition at 100 µg/mL: 8 mm
Escherichia coli [11]
  zone of inhibition at 100 µg/mL: 9 mm
Staphylococcus aureus [12]
  zone of inhibition at 100 µg/mL: 16 mm

## CC(/C=C/c1ccccc1)=N/Nc1nc(-c2ccccc2)cs1
Bacillus subtilis [7]
  zone of inhibition at 100 µg/mL: 8.5 mm
Proteus mirabilis [1]
  zone of inhibition at 50 µg/mL: 6.5 mm
Salmonella typhi [2]
  zone of inhibition at 50 µg/mL: 6 mm
Pseudomonas aeruginosa [3]
  zone of inhibition at 50 µg/mL: 6 mm
Escherichia coli [4]
  zone of inhibition at 50 µg/mL: 6 mm
Staphylococcus aureus [5]
  zone of inhibition at 50 µg/mL: 6.5 mm
Bacillus subtilis [6]
  zone of inhibition at 50 µg/mL: 6 mm
Proteus mirabilis [8]
  zone of inhibition at 100 µg/mL: 8 mm
Salmonella typhi [9]
  zone of inhibition at 100 µg/mL: 8 mm
Pseudomonas aeruginosa [10]
  zone of inhibition at 100 µg/mL: 8 mm
Escherichia coli [11]
  zone of inhibition at 100 µg/mL: 9 mm
Staphylococcus aureus [12]
  zone of inhibition at 100 µg/mL: 9.5 mm

## C(=C\c1ccccc1)/C(=N\Nc1nc(-c2ccccc2)cs1)c1ccccc1
Bacillus subtilis [7]
  zone of inhibition at 100 µg/mL: 8.5 mm
Proteus mirabilis [1]
  zone of inhibition at 50 µg/mL: 6.5 mm
Salmonella typhi [2]
  zone of inhibition at 50 µg/mL: 6 mm
Pseudomonas aeruginosa [3]
  zone of inhibition at 50 µg/mL: 6 mm
Escherichia coli [4]
  zone of inhibition at 50 µg/mL: 7 mm
Staphylococcus aureus [5]
  zone of inhibition at 50 µg/mL: 6.5 mm
Bacillus subtilis [6]
  zone of inhibition at 50 µg/mL: 6.5 mm
Proteus mirabilis [8]
  zone of inhibition at 100 µg/mL: 8.5 mm
Salmonella typhi [9]
  zone of inhibition at 100 µg/mL: 8 mm
Pseudomonas aeruginosa [10]
  zone of inhibition at 100 µg/mL: 8 mm
Escherichia coli [11]
  zone of inhibition at 100 µg/mL: 8.5 mm
Staphylococcus aureus [12]
  zone of inhibition at 100 µg/mL: 8.5 mm

## CC(/C=C/c1ccccc1)=N\Nc1ccc(-c2nc3ccccc3[nH]2)cc1
Bacillus subtilis [7]
  zone of inhibition at 100 µg/mL: 8.5 mm
Proteus mirabilis [1]
  zone of inhibition at 50 µg/mL: 6.5 mm
Salmonella typhi [2]
  zone of inhibition at 50 µg/mL: 6 mm
Pseudomonas aeruginosa [3]
  zone of inhibition at 50 µg/mL: 6 mm
Escherichia coli [4]
  zone of inhibition at 50 µg/mL: 6.5 mm
Staphylococcus aureus [5]
  zone of inhibition at 50 µg/mL: 6.5 mm
Bacillus subtilis [6]
  zone of inhibition at 50 µg/mL: 6 mm
Proteus mirabilis [8]
  zone of inhibition at 100 µg/mL: 8.5 mm
Salmonella typhi [9]
  zone of inhibition at 100 µg/mL: 8 mm
Pseudomonas aeruginosa [10]
  zone of inhibition at 100 µg/mL: 8 mm
Escherichia coli [11]
  zone of inhibition at 100 µg/mL: 9 mm
Staphylococcus aureus [12]
  zone of inhibition at 100 µg/mL: 8 mm

## CC(/C=C/c1ccccc1)=N\Nc1ccccc1
Bacillus subtilis [7]
  zone of inhibition at 100 µg/mL: 8.5 mm
Proteus mirabilis [1]
  zone of inhibition at 50 µg/mL: 6 mm
Salmonella typhi [2]
  zone of inhibition at 50 µg/mL: 6.5 mm
Pseudomonas aeruginosa [3]
  zone of inhibition at 50 µg/mL: 6 mm
Escherichia coli [4]
  zone of inhibition at 50 µg/mL: 6 mm
Staphylococcus aureus [5]
  zone of inhibition at 50 µg/mL: 6 mm
Bacillus subtilis [6]
  zone of inhibition at 50 µg/mL: 6.5 mm
Proteus mirabilis [8]
  zone of inhibition at 100 µg/mL: 9 mm
Salmonella typhi [9]
  zone of inhibition at 100 µg/mL: 8.5 mm
Pseudomonas aeruginosa [10]
  zone of inhibition at 100 µg/mL: 8.5 mm
Escherichia coli [11]
  zone of inhibition at 100 µg/mL: 8.5 mm
Staphylococcus aureus [12]
  zone of inhibition at 100 µg/mL: 8.5 mm

Source: ChEMBL document CHEMBL3045275, “Synthesis and antibacterial activity of some new hydrazones” (2013)
